Reference: patent US8017792B2, “1-thio-D-glucitol derivatives” (Taisho Pharmaceutical Co., Ltd., priority 2005, dated 2011)

Tests used:
Human SGLT2 = molecular target: T1, Human SGLT2 (Homo sapiens, UniProt P31639); assay: Sodium-dependent sugar uptake inhibition test in CHO-K1 cells stably expressing human SGLT2 (Test Example 2); type: cell-based; settings: for IC50: CHO-K1 cells, [14C]methyl-α-D-glucopyranoside 1 mM, 37° C., one hour; for SGLT1/SGLT2: ratio of IC50 human SGLT1 to IC50 human SGLT2
T1 construct: expressed in transfected cells; host or cells: CHO-K1
T1 sequence (P31639 1-672): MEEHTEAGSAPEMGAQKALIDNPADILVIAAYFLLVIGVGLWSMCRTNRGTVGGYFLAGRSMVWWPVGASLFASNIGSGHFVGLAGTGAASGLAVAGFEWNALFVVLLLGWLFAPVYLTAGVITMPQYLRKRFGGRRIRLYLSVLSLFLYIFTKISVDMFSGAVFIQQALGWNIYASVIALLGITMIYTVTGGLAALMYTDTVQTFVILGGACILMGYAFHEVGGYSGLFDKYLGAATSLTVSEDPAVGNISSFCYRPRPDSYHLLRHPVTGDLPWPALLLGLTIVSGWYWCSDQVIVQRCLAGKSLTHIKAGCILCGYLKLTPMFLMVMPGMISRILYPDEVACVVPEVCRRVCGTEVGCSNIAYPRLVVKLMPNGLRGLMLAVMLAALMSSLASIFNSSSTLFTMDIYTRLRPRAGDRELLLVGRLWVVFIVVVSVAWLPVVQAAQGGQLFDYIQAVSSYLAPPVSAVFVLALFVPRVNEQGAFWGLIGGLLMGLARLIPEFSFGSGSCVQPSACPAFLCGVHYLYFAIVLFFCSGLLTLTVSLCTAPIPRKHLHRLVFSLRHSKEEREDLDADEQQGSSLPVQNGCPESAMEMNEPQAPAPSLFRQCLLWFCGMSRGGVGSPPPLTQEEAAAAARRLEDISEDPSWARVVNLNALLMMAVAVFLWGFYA
Description: (§1) Human SGLT1 sequence (NM_000343) was reverse-transcripted from human small intestinal mRNA, then amplified, and then introduced into pCMV-tag5A from Stratagene Corporation. Human SGLT2 sequence (NM_003041) was prepared from human nephric mRNA as with the above method, and then introduced into pcDNA3.1+hygro from Invitrogen Corporation. Each cloned sequence was confirmed to be identical with the reported sequence.
(§2) CHO-K1 cells were transfected with the human SGLT1 and human SGLT2 expression vectors using Lipofectamine 2000 (Invitrogen Corporation). SGLT expression cells were cultured in the presence of geneticin (SGLT1) or hygromycin B (SGLT2) of the concentration of 500 μg/mL to select resistant strains. Cells were obtained using sugar uptake specific activity as an index in the following system.
(§3) Cells stably expressing human SGLT1 and human SGLT2 were used in the sodium-dependent sugar uptake activity inhibition test. Cells were incubated in 1 mL of a pretreatment buffer solution (140 mM choline chloride, 2 mM KCl, 1 mM CaCl2, 1 mM MgCl2, 10 mM HEPES/5 mM Tris, pH 7.4) for 20 minutes. The pretreatment buffer solution was removed and 200 μL of an uptake buffer containing test compounds (methyl-α-D-glucopyranoside containing [^14C]methyl-α-D-glucopyranoside (0.1 mM for SGLT1 inhibition, 1 mM for SGLT2 inhibition), 140 mM NaCl, 2 mM KCl, 1 mM CaCl2, 1 mM MgCl2, 10 mM HEPES/5 mM Tris, pH 7.4) were added, and uptake reaction was performed at 37° C. for 30 minutes (SGLT1) or for one hour (SGLT2). After the reaction, cells were washed with 1 mL of a washing buffer (10 mM methyl-α-D-glucopyranoside, 140 mM choline chloride, 2 mM KCl, 1 mM CaCl2, 1 mM MgCl2, 10 mM HEPES/5 mM Tris, pH 7.4) twice and dissolved in 400 μL of 0.2 M NaOH solution. After Aquazole 2 (Perkin Elmer Corporation) was added and mixed well, radioactivity was measured with a liquid scintillation counter (Beckman Coulter Corporation). A buffer for uptake which contained no test compound was prepared as a control group. Another buffer solution for uptake containing choline chloride in place of NaCl was also prepared for basic uptake.

Human SGLT1 = molecular target: T2, Human SGLT1 (Homo sapiens, UniProt P13866); assay: Sodium-dependent sugar uptake inhibition test in CHO-K1 cells stably expressing human SGLT1 (Test Example 2); type: cell-based; settings: [14C]methyl-α-D-glucopyranoside 0.1 mM, 37° C., 30 minutes
T2 construct: expressed in transfected cells; host or cells: CHO-K1
T2 sequence (P13866 1-664): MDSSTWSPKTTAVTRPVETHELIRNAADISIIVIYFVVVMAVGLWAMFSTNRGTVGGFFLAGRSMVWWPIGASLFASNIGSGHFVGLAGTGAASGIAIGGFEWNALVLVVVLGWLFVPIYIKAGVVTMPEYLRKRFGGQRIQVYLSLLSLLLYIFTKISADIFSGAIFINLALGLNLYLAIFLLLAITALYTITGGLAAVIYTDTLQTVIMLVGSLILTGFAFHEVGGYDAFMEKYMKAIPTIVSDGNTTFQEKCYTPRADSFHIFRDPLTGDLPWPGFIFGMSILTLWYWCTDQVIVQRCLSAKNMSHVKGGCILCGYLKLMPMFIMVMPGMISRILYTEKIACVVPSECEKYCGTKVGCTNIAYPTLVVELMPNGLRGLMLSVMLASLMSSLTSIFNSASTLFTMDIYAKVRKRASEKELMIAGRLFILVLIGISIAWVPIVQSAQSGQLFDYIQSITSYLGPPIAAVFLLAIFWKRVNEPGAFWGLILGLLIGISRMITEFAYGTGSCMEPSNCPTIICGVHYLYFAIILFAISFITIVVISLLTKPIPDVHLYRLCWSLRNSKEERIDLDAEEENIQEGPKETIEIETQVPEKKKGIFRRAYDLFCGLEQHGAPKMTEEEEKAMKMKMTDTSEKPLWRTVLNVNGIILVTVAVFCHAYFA
Description: as §1, §2, §3

CCOc1ccc(Cc2ccc(OC)c([C@@H]3S[C@H](CO)[C@@H](O)[C@H](O)[C@H]3O)c2)cc1 [Compound 78, (1S)-1,5-Anhydro-1-[3-(4-ethoxybenzyl)-6-methoxy-phenyl]-1-thio-D-glucitol]
IC50 (Human SGLT2): 1040 nM | SGLT1/SGLT2 (Human SGLT2): 115.4 | IC50 (Human SGLT1): 120000 nM

CCc1ccc(Cc2cc([C@@H]3S[C@H](CO)[C@@H](O)[C@H](O)[C@H]3O)c(OC)cc2C)cc1 [Compound 101, (1S)-1,5-Anhydro-1-[3-(4-ethylbenzyl)-6-methoxy-4-methylphenyl]-1-thio-D-glucitol]
IC50 (Human SGLT2): 40 nM | SGLT1/SGLT2 (Human SGLT2): 63.1 | IC50 (Human SGLT1): 2600 nM

CCOc1ccc(Cc2cc([C@@H]3S[C@H](CO)[C@@H](O)[C@H](O)[C@H]3O)c(O)cc2C)cc1 [Compound 98, (1S)-1,5-Anhydro-1-[3-(4-ethoxybenzyl)-6-hydroxy-4-methylphenyl]-1-thio-D-glucitol]
IC50 (Human SGLT2): 15 nM | SGLT1/SGLT2 (Human SGLT2): 6.5 | IC50 (Human SGLT1): 100 nM

CCOc1ccc(Cc2cc([C@@H]3S[C@H](CO)[C@@H](O)[C@H](O)[C@H]3O)ccc2OC)cc1 [Compound 77, (1S)-1,5-Anhydro-1-[3-(4-ethoxybenzyl)-4-methoxyphenyl]-1-thio-D-glucitol]
IC50 (Human SGLT2): 690 nM | SGLT1/SGLT2 (Human SGLT2): 11.6 | IC50 (Human SGLT1): 8000 nM

CCc1ccc(Cc2cc([C@@H]3S[C@H](CO)[C@@H](O)[C@H](O)[C@H]3O)c(OC)cc2Cl)cc1 [Compound 102, (1S)-1,5-Anhydro-1-[4-chloro-3-(4-ethylbenzyl)-6-methoxyphenyl]-1-thio-D-glucitol]
IC50 (Human SGLT2): 40 nM | SGLT1/SGLT2 (Human SGLT2): 86.6 | IC50 (Human SGLT1): 3500 nM

OC[C@H]1S[C@@H](c2cccc(Cc3ccc(-c4ccccc4)s3)c2)[C@H](O)[C@@H](O)[C@@H]1O [Compound 134]
IC50 (Human SGLT2): 2910 nM

CCc1ccc(Cc2ccc([C@@H]3S[C@H](CO)[C@@H](O)[C@H](O)[C@H]3O)s2)cc1 [Compound 139, (1S)-1,5-anhydro-1-[5-(4-ethylbenzyl)thiophen-2-yl]-1-thio-D-glucitol]
IC50 (Human SGLT2): 114000 nM

Cc1ccc(Cc2cc([C@@H]3S[C@H](CO)[C@@H](O)[C@H](O)[C@H]3O)ccc2Cl)cc1 [Compound 92, (1S)-1,5-Anhydro-1-[4-chloro-3-(4-methylbenzyl)phenyl]-1-thio-D-glucitol]
IC50 (Human SGLT2): 30 nM | SGLT1/SGLT2 (Human SGLT2): 7.7 | IC50 (Human SGLT1): 200 nM

CCOc1ccc(Cc2cncc([C@@H]3S[C@H](CO)[C@@H](O)[C@H](O)[C@H]3O)c2)cc1 [Compound 138, (1S)-1,5-anhydro-1-[5-(4-ethoxybenzyl)pyridin-3-yl]-1-thio-D-glucitol]
IC50 (Human SGLT2): 33000 nM

CCc1ccc(Cc2cccc([C@@H]3S[C@H](CO)[C@@H](O)[C@H](O)[C@H]3O)c2)cc1 [Compound 74, (1S)-1,5-anhydro-1-[3-(4-ethylbenzyl)phenyl]-1-thio-D-glucitol]
IC50 (Human SGLT2): 1190 nM | SGLT1/SGLT2 (Human SGLT2): 12.8 | IC50 (Human SGLT1): 15300 nM

CCOc1ccc(Cc2cc([C@@H]3S[C@H](CO)[C@@H](O)[C@H](O)[C@H]3O)c(OC)cc2OC)cc1 [Compound 80, (1S)-1,5-Anhydro-1-[4,6-dimethoxy-3-(4-ethoxybenzyl)phenyl]-1-thio-D-glucitol]
IC50 (Human SGLT2): 190 nM | IC50 (Human SGLT1): 2900 nM

CCOc1ccc(Cc2cc([C@@H]3S[C@H](CO)[C@@H](O)[C@H](O)[C@H]3O)c(OC)cc2C)cc1 [Compound 89, (1S)-1,5-anhydro-1-[3-(4-ethoxybenzyl)-6-methoxy-4-methylphenyl]-1-thio-D-glucitol]
IC50 (Human SGLT2): 65 nM | SGLT1/SGLT2 (Human SGLT2): 97.5 | IC50 (Human SGLT1): 6300 nM

CCOc1ccc(Cc2cc([C@@H]3S[C@H](CO)[C@@H](O)[C@H](O)[C@H]3O)ccc2Cl)c(F)c1 [Compound 91, (1S)-1,5-Anhydro-1-[4-chloro-3-(2-fluoro-4-ethoxybenzyl)phenyl]-1-thio-D-glucitol]
IC50 (Human SGLT2): 110 nM | SGLT1/SGLT2 (Human SGLT2): 15.5 | IC50 (Human SGLT1): 1700 nM

CSc1ccc(Cc2cc([C@@H]3S[C@H](CO)[C@@H](O)[C@H](O)[C@H]3O)ccc2Cl)cc1 [Compound 93, (1S)-1,5-Anhydro-1-[4-chloro-3-(4-methylthiobenzyl)phenyl]-1-thio-D-glucitol]
IC50 (Human SGLT2): 21 nM | SGLT1/SGLT2 (Human SGLT2): 21.0 | IC50 (Human SGLT1): 400 nM

COc1cc(C)c(Cc2ccc(C)cc2)cc1[C@@H]1S[C@H](CO)[C@@H](O)[C@H](O)[C@H]1O [Compound 104, (1S)-1,5-Anhydro-1-[3-(4-methylbenzyl)-6-methoxy-4-methylphenyl]-1-thio-D-glucitol]
IC50 (Human SGLT2): 34 nM | SGLT1/SGLT2 (Human SGLT2): 29.8 | IC50 (Human SGLT1): 1000 nM

OC[C@H]1S[C@@H](c2ccc(Cl)c(Cc3ccc(O)cc3)c2)[C@H](O)[C@@H](O)[C@@H]1O [Compound 94, (1S)-1,5-Anhydro-1-[4-chloro-3-(4-hydroxybenzyl)phenyl]-1-thio-D-glucitol]
IC50 (Human SGLT2): 250 nM | SGLT1/SGLT2 (Human SGLT2): 1.3 | IC50 (Human SGLT1): 300 nM

CCOc1ccc(Cc2cc([C@@H]3S[C@H](CO)[C@@H](O)[C@H](O)[C@H]3O)ccc2C)cc1 [Compound 86, (1S)-1,5-Anhydro-1-[3-(4-ethoxybenzyl)-4-methylphenyl]-1-thio-D-glucitol]
IC50 (Human SGLT2): 60 nM | SGLT1/SGLT2 (Human SGLT2): 18.3 | IC50 (Human SGLT1): 1100 nM

COc1cc(C)c(Cc2ccc(C(C)C)cc2)cc1[C@@H]1S[C@H](CO)[C@@H](O)[C@H](O)[C@H]1O [Compound 105, (1S)-1,5-Anhydro-1-[3-(4-isopropylbenzyl)-6-methoxy-4-methylphenyl]-1-thio-D-glucitol]
IC50 (Human SGLT2): 93 nM | SGLT1/SGLT2 (Human SGLT2): 182.5 | IC50 (Human SGLT1): 17000 nM

CCOc1ccc(Cc2cc([C@@H]3S[C@H](CO)[C@@H](O)[C@H](O)[C@H]3O)ccc2O)cc1 [Compound 82, (1S)-1,5-Anhydro-1-[3-(4-ethoxybenzyl)-4-hydroxyphenyl]-1-thio-D-glucitol]
IC50 (Human SGLT2): 3780 nM | SGLT1/SGLT2 (Human SGLT2): 4.0 | IC50 (Human SGLT1): 15000 nM

OC[C@H]1S[C@@H](c2ccc(Cl)c(Cc3cc4ccccc4o3)c2)[C@H](O)[C@@H](O)[C@@H]1O [Compound 132, (1S)-1,5-Anhydro-1-[3-[(1-benzofuran-2-yl)methyl]-4-chlorophenyl]-1-thio-D-glucitol]
IC50 (Human SGLT2): 497 nM | SGLT1/SGLT2 (Human SGLT2): 8.9 | IC50 (Human SGLT1): 4400 nM

CCc1ccc(Cc2cc([C@@H]3S[C@H](CO)[C@@H](O)[C@H](O)[C@H]3O)ccc2Cl)cc1 [Compound 95, (1S)-1,5-Anhydro-1-[4-chloro-3-(4-ethylbenzyl)phenyl]-1-thio-D-glucitol]
IC50 (Human SGLT2): 28 nM | SGLT1/SGLT2 (Human SGLT2): 22.3
